Test results as given in BigSolDB 2.1.

Details: in water

NC(N)=S
Details	solubility (mole fraction)
290.75 K	0.0256
293.05 K	0.0289
296.65 K	0.0347
300.25 K	0.0413
303.15 K	0.0474
307.1 K	0.0583
310.15 K	0.0641
313.15 K	0.071
315.85 K	0.0806
318.35 K	0.0886
320.75 K	0.0969
323.25 K	0.103
326.05 K	0.116
328.45 K	0.126
330.55 K	0.135
333.25 K	0.15
336.45 K	0.161
340.75 K	0.183
343.55 K	0.198
347.35 K	0.218
351.15 K	0.239
353.45 K	0.251
355.75 K	0.265

CC(C)Br
Details	solubility (mole fraction)
295.25 K	0.000587
300.15 K	0.00082
303.55 K	0.00104
306.25 K	0.00121
310.35 K	0.00157
313.25 K	0.00189
316.15 K	0.00227
321.25 K	0.00307
323.25 K	0.00343
325.55 K	0.00394
329.35 K	0.00483
331.25 K	0.00536
334.15 K	0.0063
337.35 K	0.00743
340.55 K	0.0087
343.15 K	0.0101
345.45 K	0.0112
348.55 K	0.0127
350.15 K	0.0139
352.35 K	0.0154
354.75 K	0.0171
